Reference: patent US11572590B2, “Methods for evaluating tumor cell spheroids using 3D microfluidic cell culture device” (Dana-Farber Cancer Institute, Inc., priority 2017, dated 2023)
Where two headings read alike, the source gives them in different places.

Legend:
Experiment in all cases: SelectScreen Kinase Profiling, single point inhibition and IC50 for off-target kinases
Assay type in all cases: biochemical
off-target kinases [1] = target: T1, off-target kinases (Homo sapiens, UniProt Q9H2K8); conditions: TAOK3 (JIK), LanthaScreen Binding
T1 sequence (Q9H2K8 1-898): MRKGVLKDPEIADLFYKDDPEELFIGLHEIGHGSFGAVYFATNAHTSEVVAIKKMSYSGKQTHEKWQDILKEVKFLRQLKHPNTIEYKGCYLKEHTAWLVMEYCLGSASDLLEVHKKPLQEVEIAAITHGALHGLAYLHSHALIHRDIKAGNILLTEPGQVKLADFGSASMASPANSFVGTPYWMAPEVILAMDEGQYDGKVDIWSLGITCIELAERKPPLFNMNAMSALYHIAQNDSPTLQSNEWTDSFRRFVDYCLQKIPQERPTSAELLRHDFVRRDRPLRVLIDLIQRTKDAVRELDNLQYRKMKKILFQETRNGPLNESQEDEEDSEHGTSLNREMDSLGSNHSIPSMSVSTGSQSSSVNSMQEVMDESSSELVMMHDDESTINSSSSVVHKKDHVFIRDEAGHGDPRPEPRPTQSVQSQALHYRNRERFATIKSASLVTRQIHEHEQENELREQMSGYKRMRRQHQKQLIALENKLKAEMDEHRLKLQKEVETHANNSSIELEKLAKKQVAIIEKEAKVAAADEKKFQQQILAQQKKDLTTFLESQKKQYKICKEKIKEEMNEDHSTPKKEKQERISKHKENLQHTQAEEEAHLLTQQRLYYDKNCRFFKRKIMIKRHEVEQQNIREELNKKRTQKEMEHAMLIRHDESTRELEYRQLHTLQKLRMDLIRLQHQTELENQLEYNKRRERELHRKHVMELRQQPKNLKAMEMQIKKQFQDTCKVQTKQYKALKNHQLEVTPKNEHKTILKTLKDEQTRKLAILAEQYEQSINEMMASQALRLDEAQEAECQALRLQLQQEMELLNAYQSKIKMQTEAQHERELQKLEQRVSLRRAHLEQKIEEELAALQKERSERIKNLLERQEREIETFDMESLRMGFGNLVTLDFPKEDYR

off-target kinases [2] = target: off-target kinases (Homo sapiens, UniProt Q16620); conditions: NTRK2 (TRKB), ZLYTE, ATP Km app
off-target kinases (Homo sapiens, UniProt Q16620), sequence (Q16620 32-822): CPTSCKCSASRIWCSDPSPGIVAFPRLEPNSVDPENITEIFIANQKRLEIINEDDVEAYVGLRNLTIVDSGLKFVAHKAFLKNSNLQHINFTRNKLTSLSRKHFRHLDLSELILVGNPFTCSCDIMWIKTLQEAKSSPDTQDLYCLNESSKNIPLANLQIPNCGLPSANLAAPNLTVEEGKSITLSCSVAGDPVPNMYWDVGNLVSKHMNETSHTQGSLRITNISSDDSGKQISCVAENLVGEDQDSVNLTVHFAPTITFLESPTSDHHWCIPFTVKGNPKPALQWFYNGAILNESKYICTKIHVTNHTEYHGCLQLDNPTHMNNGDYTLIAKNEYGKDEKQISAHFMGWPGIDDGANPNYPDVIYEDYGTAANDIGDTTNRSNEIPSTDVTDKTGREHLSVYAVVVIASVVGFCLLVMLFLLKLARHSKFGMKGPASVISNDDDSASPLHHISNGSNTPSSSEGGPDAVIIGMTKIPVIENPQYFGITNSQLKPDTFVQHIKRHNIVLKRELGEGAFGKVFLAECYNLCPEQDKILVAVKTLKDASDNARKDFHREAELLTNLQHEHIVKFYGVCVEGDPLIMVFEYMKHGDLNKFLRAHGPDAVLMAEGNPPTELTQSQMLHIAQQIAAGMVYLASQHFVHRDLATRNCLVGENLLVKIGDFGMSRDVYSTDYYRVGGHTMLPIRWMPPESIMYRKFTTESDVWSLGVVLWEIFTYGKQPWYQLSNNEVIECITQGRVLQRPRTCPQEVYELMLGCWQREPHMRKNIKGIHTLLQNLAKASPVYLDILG

off-target kinases [3] = target: off-target kinases (Homo sapiens, UniProt P22694); conditions: PRKACB (PRKAC beta), LanthaScreen Binding
off-target kinases [4] = target: off-target kinases (Homo sapiens, UniProt O60674); conditions: ATP Km app, ZLYTE
off-target kinases (Homo sapiens, UniProt O60674), sequence (O60674 whole entry): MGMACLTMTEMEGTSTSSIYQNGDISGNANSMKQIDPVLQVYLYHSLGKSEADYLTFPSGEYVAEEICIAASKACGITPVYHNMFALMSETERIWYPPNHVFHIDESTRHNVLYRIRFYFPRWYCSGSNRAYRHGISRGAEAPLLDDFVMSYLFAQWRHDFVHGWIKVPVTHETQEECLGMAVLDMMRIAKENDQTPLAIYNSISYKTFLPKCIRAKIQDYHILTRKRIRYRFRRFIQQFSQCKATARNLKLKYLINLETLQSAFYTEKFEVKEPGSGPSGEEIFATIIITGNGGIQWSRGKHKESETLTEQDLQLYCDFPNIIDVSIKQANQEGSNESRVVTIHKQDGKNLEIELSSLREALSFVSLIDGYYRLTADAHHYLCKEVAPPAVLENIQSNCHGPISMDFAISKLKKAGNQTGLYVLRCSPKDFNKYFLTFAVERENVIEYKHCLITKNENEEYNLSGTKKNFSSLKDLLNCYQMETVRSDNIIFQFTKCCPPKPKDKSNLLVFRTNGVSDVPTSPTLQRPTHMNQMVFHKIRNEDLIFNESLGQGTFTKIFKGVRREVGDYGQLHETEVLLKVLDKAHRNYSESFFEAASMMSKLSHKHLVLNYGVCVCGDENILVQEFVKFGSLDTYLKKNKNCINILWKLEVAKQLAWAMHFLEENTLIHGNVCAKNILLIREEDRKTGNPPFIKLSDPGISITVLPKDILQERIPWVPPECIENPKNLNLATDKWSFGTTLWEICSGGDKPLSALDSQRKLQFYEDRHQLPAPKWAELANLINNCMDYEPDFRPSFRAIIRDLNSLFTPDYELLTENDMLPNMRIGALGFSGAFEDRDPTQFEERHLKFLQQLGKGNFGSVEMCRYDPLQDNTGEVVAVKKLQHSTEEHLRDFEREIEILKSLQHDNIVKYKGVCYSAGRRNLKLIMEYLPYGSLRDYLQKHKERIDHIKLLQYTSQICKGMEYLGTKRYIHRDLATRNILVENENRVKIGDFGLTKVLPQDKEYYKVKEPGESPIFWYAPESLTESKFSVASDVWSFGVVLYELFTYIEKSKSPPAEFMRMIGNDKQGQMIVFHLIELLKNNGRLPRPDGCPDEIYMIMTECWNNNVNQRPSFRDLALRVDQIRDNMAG

off-target kinases [5] = target: off-target kinases (Homo sapiens, UniProt Q9UM73, C1156Y); conditions: ALK C1156Y (mutant), LanthaScreen Binding
off-target kinases (Homo sapiens, UniProt Q9UM73, C1156Y), sequence (Q9UM73 19-1620 C1156Y): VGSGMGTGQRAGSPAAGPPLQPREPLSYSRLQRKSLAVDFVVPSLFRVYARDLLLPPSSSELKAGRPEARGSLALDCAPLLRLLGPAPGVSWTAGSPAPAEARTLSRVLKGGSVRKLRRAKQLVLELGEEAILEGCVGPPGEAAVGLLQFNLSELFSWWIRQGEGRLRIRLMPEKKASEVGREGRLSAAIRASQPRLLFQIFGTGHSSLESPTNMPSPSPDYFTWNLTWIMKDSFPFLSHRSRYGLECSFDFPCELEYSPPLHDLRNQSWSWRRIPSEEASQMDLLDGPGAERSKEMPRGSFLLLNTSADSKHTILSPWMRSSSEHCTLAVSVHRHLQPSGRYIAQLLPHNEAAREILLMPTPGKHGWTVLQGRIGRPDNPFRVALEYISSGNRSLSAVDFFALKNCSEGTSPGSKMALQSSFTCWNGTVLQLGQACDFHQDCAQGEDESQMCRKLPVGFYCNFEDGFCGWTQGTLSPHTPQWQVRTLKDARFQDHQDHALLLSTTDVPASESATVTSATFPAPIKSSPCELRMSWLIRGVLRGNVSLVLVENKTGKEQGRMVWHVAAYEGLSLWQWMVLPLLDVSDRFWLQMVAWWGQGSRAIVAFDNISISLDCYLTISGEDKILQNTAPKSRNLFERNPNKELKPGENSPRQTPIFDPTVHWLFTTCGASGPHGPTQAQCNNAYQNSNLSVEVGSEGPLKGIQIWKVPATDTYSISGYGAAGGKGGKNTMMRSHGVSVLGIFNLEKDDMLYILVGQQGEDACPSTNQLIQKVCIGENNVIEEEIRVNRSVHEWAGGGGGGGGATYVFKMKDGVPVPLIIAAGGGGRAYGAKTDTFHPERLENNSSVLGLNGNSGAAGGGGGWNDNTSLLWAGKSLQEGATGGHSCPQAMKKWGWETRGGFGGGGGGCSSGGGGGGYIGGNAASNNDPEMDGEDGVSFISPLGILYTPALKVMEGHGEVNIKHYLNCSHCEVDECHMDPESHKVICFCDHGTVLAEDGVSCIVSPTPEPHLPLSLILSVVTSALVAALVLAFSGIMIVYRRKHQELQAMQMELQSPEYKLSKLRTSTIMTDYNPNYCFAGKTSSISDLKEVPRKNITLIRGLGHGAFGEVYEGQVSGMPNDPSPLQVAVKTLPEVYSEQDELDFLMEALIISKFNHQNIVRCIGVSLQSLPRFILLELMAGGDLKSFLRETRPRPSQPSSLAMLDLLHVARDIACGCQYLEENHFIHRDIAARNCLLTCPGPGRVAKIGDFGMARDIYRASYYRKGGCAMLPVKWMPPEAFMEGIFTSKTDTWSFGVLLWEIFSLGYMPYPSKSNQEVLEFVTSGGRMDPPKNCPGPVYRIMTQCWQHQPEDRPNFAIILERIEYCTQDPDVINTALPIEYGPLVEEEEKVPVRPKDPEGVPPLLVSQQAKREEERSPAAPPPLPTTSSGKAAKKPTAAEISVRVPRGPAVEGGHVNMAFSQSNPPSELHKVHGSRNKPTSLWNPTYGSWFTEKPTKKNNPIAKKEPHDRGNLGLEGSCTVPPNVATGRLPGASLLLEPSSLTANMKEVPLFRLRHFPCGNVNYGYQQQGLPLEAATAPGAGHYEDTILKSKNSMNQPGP

## N#Cc1cc(-c2ncnc(Nc3ccc(N4CCN(C5COC5)CC4)cc3)n2)ccc1OC1CCOCC1 [Compound 1, 5-(4-((4-(4-(oxetan-3-yl)piperazin-1-yl)phenyl)amino)-1,3,5-triazin-2-yl)-2-((tetrahydro-2H-pyran-4-yl)oxy)benzonitrile]
off-target kinases [1]; read-out: % Inhibition 1
  inhibition: 3%
off-target kinases [1]; read-out: % Inhibition 2
  inhibition: 1%
off-target kinases [1]; read-out: % Inhibition Avg
  inhibition: 2%
off-target kinases [2]; read-out: % Inhibition 1
  inhibition: 5%
off-target kinases [2]; read-out: % Inhibition 2
  inhibition: 7%
off-target kinases [2]; read-out: % Inhibition Avg
  inhibition: 6%
off-target kinases [3]; read-out: % Inhibition 1
  inhibition: 16%
off-target kinases [3]; read-out: % Inhibition 2
  inhibition: 18%
off-target kinases [3]; read-out: % Inhibition Avg
  inhibition: 17%
off-target kinases [4]; JAK2, read-out: % Inhibition 1
  inhibition: 67%
off-target kinases [4]; JAK2, read-out: % Inhibition 2
  inhibition: 68%
off-target kinases [4]; JAK2, read-out: % Inhibition Avg
  inhibition: 67%
off-target kinases [4]; JAK2 JH1 JH2, read-out: % Inhibition 1
  inhibition: 46%
off-target kinases [4]; JAK2 JH1 JH2, read-out: % Inhibition 2
  inhibition: 47%
off-target kinases [4]; JAK2 JH1 JH2, read-out: % Inhibition Avg
  inhibition: 46%
off-target kinases [5]; read-out: % Inhibition 1
  inhibition: 7%
off-target kinases [5]; read-out: % Inhibition 2
  inhibition: 12%
off-target kinases [5]; read-out: % Inhibition Avg
  inhibition: 9%
